Where “and” joins values, the source holds several entries; their conditions need not be identical. Equal entries are not always repeated.
Tests used:
[1] = target: human S1P5 K24Q mutant (Homo sapiens, UniProt Q9H228, K24Q); experiment: BRET-based cAMP Gi signaling assay, S1P5 K24Q; conditions: inverse agonism
[2] = target: human S1P5 N92C mutant (Homo sapiens, UniProt Q9H228, N92C); experiment: BRET-based cAMP Gi signaling assay, S1P5 N92C; conditions: inverse agonism
[3] = target: human S1P5 R111A mutant (Homo sapiens, UniProt Q9H228, R111A); experiment: BRET-based cAMP Gi signaling assay, S1P5 R111A; conditions: inverse agonism
human S1P5 R111A mutant, sequence (Q9H228 whole entry R111A): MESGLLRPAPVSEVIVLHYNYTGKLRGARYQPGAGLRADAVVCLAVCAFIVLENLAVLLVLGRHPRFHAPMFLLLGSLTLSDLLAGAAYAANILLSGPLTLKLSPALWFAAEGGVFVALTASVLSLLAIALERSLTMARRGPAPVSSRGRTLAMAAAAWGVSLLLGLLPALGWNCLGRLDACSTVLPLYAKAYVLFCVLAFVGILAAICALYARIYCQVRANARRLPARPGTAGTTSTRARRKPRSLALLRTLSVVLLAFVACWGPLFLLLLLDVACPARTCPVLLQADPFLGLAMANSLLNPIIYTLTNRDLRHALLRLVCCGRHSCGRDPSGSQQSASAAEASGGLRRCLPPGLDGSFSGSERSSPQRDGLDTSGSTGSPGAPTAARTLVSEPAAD

[4] = target: human S1P5 Y19F mutant (Homo sapiens, UniProt Q9H228, Y19F); experiment: BRET-based cAMP Gi signaling assay, S1P5 Y19F; conditions: for BRET ratio, Supplementary Figure 6b: replicate values, listed as ONO
human S1P5 Y19F mutant, sequence (Q9H228 whole entry Y19F): as the sequence (Q9H228 whole entry R111A) above, with Y19F, A111R counted along it

[5] = target: human S1P5 G293A mutant (Homo sapiens, UniProt Q9H228, G293A); experiment: BRET-based cAMP Gi signaling assay, S1P5 G293A; conditions: inverse agonism
human S1P5 G293A mutant, sequence (Q9H228 whole entry G293A): as the sequence (Q9H228 whole entry R111A) above, with A111R, G293A counted along it

[6] = target: human S1P5 L292V mutant (Homo sapiens, UniProt Q9H228, L292V); experiment: BRET-based cAMP Gi signaling assay, S1P5 L292V; conditions: inverse agonism
human S1P5 L292V mutant, sequence (Q9H228 whole entry L292V): as the sequence (Q9H228 whole entry R111A) above, with A111R, L292V counted along it

[7] = Figure 2c source data, N/R = no response

human S1P5 K24Q mutant, sequence (Q9H228 whole entry K24Q): as the sequence (Q9H228 whole entry R111A) above, with K24Q, A111R counted along it
human S1P5 N92C mutant, sequence (Q9H228 whole entry N92C): as the sequence (Q9H228 whole entry R111A) above, with N92C, A111R counted along it

`O=C(O)CCCN1CCc2cccc(OCCc3cccc4ccccc34)c2CC1` [ONO-5430608, 4-{6-[2-(1-naphthyl)ethoxy]-1,2,4,5-tetrahydro-3H-3-benzazepin-3-yl} butanoic acid] was tested, and the “ONO-5430608 pEC50, single experiments #1-#3” value (“ONO-5430608 pEC50” below) [1, 7] was “N/R”, the “ONO, pEC50, M” value ([1]; n=3, N/R = no response) was “N/R” and the “ONO-5430608 pEC50” value [2, 7] was “N/R”. For the same compound, the “ONO, pEC50, M” value ([2]; n=3, N/R = no response) was “N/R”, the “ONO-5430608 pEC50” value [3, 7] was “N/R” and the “ONO, pEC50, M” value ([3]; n=3, N/R = no response) was “N/R”. The “BRET ratio, Supplementary Figure 6b” value ([4]; [ONO] 0.169351 nM) was 0.7728 and 0.7856 and 0.7903 and 0.7898 and 0.7857 and 0.7721 and 0.7815 and 0.7858 and 0.7955, the “BRET ratio, Supplementary Figure 6b” value ([4]; [ONO] 0.508053 nM) was 0.7709 and 0.7829 and 0.7789 and 0.7882 and 0.7908 and 0.7857 and 0.7787 and 0.7826 and 0.7773 and the “BRET ratio, Supplementary Figure 6b” value ([4]; [ONO] 1.52416 nM) was 0.7699 and 0.7813 and 0.7753 and 0.786 and 0.7843 and 0.7814 and 0.7777 and 0.78 and 0.7821. The “BRET ratio, Supplementary Figure 6b” value ([4]; [ONO] 4.57247 nM) was 0.7759 and 0.7968 and 0.7779 and 0.7827 and 0.7847 (2×) and 0.7768 and 0.7813 and 0.7893, the “BRET ratio, Supplementary Figure 6b” value ([4]; [ONO] 13.7174 nM) was 0.7824 (2×) and 0.7736 and 0.7864 and 0.7844 and 0.776 and 0.7899 and 0.7904 and 0.7943 and the “ONO-5430608 pEC50” value ([4]; inverse agonism, Figure 2c source data, N/R = no response) was “N/R”. For the same compound, the “ONO, pEC50, M” value ([4]; inverse agonism, n=3, N/R = no response) was “N/R”, the EC50 ([5]; ONO, pEC50, M, G293A, mean ± SD, n=3) was 4.57 nM and the EC50 ([5]; ONO-5430608 pEC50, single experiments #1-#3, G293A, Figure 2c source data) was 5.11 nM and 4.57 nM and 4.12 nM. For the same compound, the EC50 ([6]; ONO, pEC50, M, L292V, mean ± SD, n=3) was 23.4 nM and the EC50 ([6]; ONO-5430608 pEC50, single experiments #1-#3, L292V, Figure 2c source data) was 23 nM and 25.6 nM and 22.5 nM.

Source: article PMC9374744, “Structural basis for receptor selectivity and inverse agonism in S1P5 receptors” (Nature Communications, 2022)
